Consider three sequences from US20040009156A1, “Antisense therapy using oligonucleotides that target human kinesin genes for treatment of cancer” (priority 2001, published 2004).

The subject of series [1] is human colon cancer cell line SW620. The series can be described thus: Soft agar growth (anchorage independent growth) of transfected SW620 cells. The series is classed as cell-based. The conditions noted are these: SW620 cells transfected with antisense oligonucleotide; versus reverse control; FIG. 1. An excerpt:
The antisense oligonucleotides (SEQ IDNO:17), (SEQ IDNO:4), and (SEQ ID NO:1) were each transfected into the human colon cancer cell line SW620. Additionally, the same colon cancer cell line was transfected with the corresponding reverse control sequences (respectively SEQ ID NO:35, SEQ ID NO:22 and SEQ ID NO:19). […] These assay results contained in FIG. 1 indicate that the synthesized kinesin antisense oligonucleotides inhibit tumorigenesis.

Series [2] has as its system SW620 cells. The series can be described thus: LDH cytotoxicity assay, alone and with cisplatinum. The series is classed as cell-based, human. The conditions noted are these: FIG. 4. The procedure:
LDH cytotoxicity assays were performed to determine the effect of antisense oligonucleotides on SW620 cell death alone and in the presence of the chemotherapeutic drug cisplatinum. […] Also, the same LDH cytotoxicity assays were performed on MRC9 cells transfected with the same oligonucleotides in the presence or absence of cisplatinum.

Series [3] relates to SW620 cells. Description: Cell cycle profile by FACS analysis of propidium iodide stained cells. Type of series: cell-based, human. The conditions noted are these: SW620 cells transiently transfected; FIG. 2. Here is the method: SW620 cells were transiently transfected with antisense oligonucleotides according to the invention and the effect on cell cycle profile evaluated by FACS analysis of propidium iodide stained cells. It was observed that cell tested antisense oligonucleotides arrested cells in G2/M phase to different degrees. […] Also, the effect of the same antisense oligonucleotides on the cell cycle of normal human filonblasts was tested.
(Flow cytometry measures light scatter and fluorescence of single cells or particles in a stream.)

“GTTGATCTGGGCTCGCAGAGGTAAT (chemistry not given here) [SEQ ID NO:4]”: the “capability of the cells to grow in soft agar (anchorage independent growth)” value (shortened to “capability of the cells to grow”) in series [1] is “significantly inhibited”. In addition, the “cell death (LDH cytotoxicity), oligonucleotide alone” value in the series on SW620 cells [2] is on record as “induced death”.
Consider “TGGATAAATTGCCTGGAATCAGCGC (chemistry not given here) [SEQ ID NO:17]”, for which, in series [1], the “capability of the cells to grow” value was “significantly inhibited”. Further, in the series on SW620 cells [2] (in combination with the chemotherapeutic drug cisplatinum), the “cytotoxicity (LDH) in combination with cisplatinum” value is “increase in cytotoxicity”.
For “CCTCCGCCATCCTATCAGGCTGAA (chemistry not given here) [SEQ ID NO:1]”, the “capability of the cells to grow” value in series [1] was “significantly inhibited”. For the same sequence, in the series on SW620 cells [3], the “cell cycle arrest in G2/M phase” value was “next best inhibiting effect”. For the same sequence, the “cell death (LDH cytotoxicity), oligonucleotide alone” value in the series on SW620 cells [2] is “did not induce cytotoxicity”.
